Laboratory results taken from patent publication US20150164930A1, “USE OF ARGINASE INHIBITORS IN THE TREATMENT OF ASTHMA AND ALLERGIC RHINITIS” (RIJKSUNIVERSITEIT GRONINGEN, priority 2006, published 2015).

Legend:
Assay type in all cases: in vivo
[1] = test system: guinea pig model of allergic asthma (ovalbumin-sensitized, airway responsiveness to inhaled histamine); experiment: Reversal of allergen-induced AHR in guinea pig model of allergic asthma (reversion protocol); conditions: for effect on allergen-induced AHR after the EAR (histamine PC100): inhalation at 5.5 h after ovalbumin; for effect on allergen-induced AHR after the EAR (histamine PC100) / effect on allergen-induced AHR after the LAR (histamine PC100) / effect on basal airway responsiveness to inhaled histamine (PC100): ABH 25 mM, L- or D-arginine 1 M nebulizer concentration; for effect on allergen-induced AHR after the LAR (histamine PC100): inhalation at 23.5 h after ovalbumin; for effect on basal airway responsiveness to inhaled histamine (PC100): inhaled 15 min, PC100 30 min before and after inhalation
Source text: (§1) Outbred male specified pathogen free Dunkin Hartley guinea pigs (Harlan Heathfield, UK) were used in this example. All animals, weighing approximately 250 g, were actively IgE-sensitized to ovalbumin as described by Van Amsterdam et al. [Agents Actions 1989, 26:48-51]. The animals were operated on 2 weeks after sensitization and used experimentally in weeks 4 and 5 after sensitization. The animals were housed in individual cages in climate controlled animal quarters and given water and food ad libitum, while a 12 h on/12 h off light cycle was maintained. All protocols described in this study were approved by the University of Groningen Committee for Animal Experimentation.
(§2) Airway function was assessed by on-line measurement of pleural pressure (Ppl) under unrestrained conditions as described previously [Santing et al., Pulm Pharmacol 1992, 5:265-272; Meurs et al., Nature Protocols 2006, 1:840-847].
(§3) In short, a small fluid filled latex balloon catheter was surgically implanted inside the thoracic cavity. The free end of the catheter was driven subcutaneously to the neck of the animal, where it was exposed and attached permanently. Via an external fluid filled cannula, the pleural balloon catheter was connected to a pressure transducer (TXX R, Viggo-Spectramed, Bilthoven, Netherlands). Ppl (in cm H2O) was measured continuously using an on-line computer system.
(§4) Allergen and histamine provocations were performed by inhalation of aerosolized solutions. These provocations were carried out in a specially designed perspex cage of 9 l, in which the guinea pigs could move freely as previously described [Santing et al.; Meurs et al., both supra]. A DeVilbiss nebulizer (type 646) driven by an airflow of 8 l/min provided the aerosol with an output of 0.33 ml/min. The animals were habituated to the experimental conditions and the provocations procedure at least one week after surgery, when preoperative weight was restored, as described previously [Meurs et al, supra].
(§5) On the experimental days following the habituation procedure, allergen and/or histamine provocations were performed as described below. All provocations were preceded by an adaptation period of at least 30 min, followed by two consecutive control provocations with saline, each provocation lasting 3 min and separated by 7 min intervals. A baseline Ppl value was calculated by averaging the Ppl values from the last 20 min of the adaptation period.
(§6) In order to assess the airway reactivity for histamine, provocations with increasing concentration steps (6.25, 12.5, 25, 50, 75, 100 and 125 μg/ml) in saline were performed. Histamine provocations lasted 3 min and were separated by 7 min intervals. Animals were challenged until Ppl was increased by more than 100% above baseline for at least 3 consecutive minutes. The concentration of histamine causing a 100% increase of Ppl (PC 100) was derived by linear interpolation of the concentration Ppl curve and was used as an index for airway reactivity towards histamine. Ppl returned to baseline within 15 min after the last histamine provocation.
(§7) Allergen provocations were performed by inhalation of increasing concentrations of 0.5, 1.0 or 3.0 mg/ml ovalbumin in saline and were discontinued when the first signs of respiratory distress were observed and an increase in Ppl of more than 100% was reached.
On two different occasions, separated by one week interval, guinea pigs were treated either with vehicle (saline) or drug (ABH, L-arginine or D-arginine), to establish the acute effects of these drugs on basal airway responsiveness to histamine as well as on allergen-induced airway hyperresponsiveness (AHR) after the EAR and the LAR (FIG. 2).
On the first experimental day, saline- or drug induced effects on basal histamine reactivity were established. Thirty minutes after the assessment of the basal histamine PC100, an aerosol of saline (control) or 25 mM ABH, 1.0 M L-arginine or 1.0 M D-arginine (nebulizer concentrations) was inhaled for 15 min. […]

[2] = test system: guinea pig model of allergic asthma (ovalbumin-sensitized); experiment: Prevention of allergen-induced EAR, LAR and AHR by pretreatment, equal allergen dose for both treatment groups (protection protocol, second experiment)
Source text: as §1, §2, §3, §4, §5, §6, §7
In a second experiment, animals were challenged once with allergen. On the first experimental day, the basal histamine PC100 was assessed. The next day, animals were pretreated with either saline or ABH (25 mM; nebulizer concentration) 0.5 h before and 8 h after allergen inhalation. The ABH pretreated animals were challenged with the same allergen dose that caused airway obstruction in the saline treated guinea pigs. […]

[3] = test system: guinea pig model of allergic asthma (ovalbumin-sensitized); experiment: Prevention of allergen-induced AHR by pretreatment, animals challenged with increasing allergen doses until obstruction (protection protocol)
Source text: as §1, §2, §3, §4, §5, §6, §7
On the first experimental day, the basal histamine PC100 was assessed. The next day, saline was inhaled for 15 min, 0.5 h prior to and at 8 h after allergen inhalation, and histamine PC100 measurements were performed 6 and 24 h post allergen challenge. One week later, the same protocol was repeated with inhalations of either 25 mM ABH (nebulizer concentration) or saline at t=−0.5 and 8 h. All animals were challenged with increasing doses of allergen (0.5, 1 and 3 mg/ml) until obstruction. […]

[4] = ABH 25 mM nebulizer 0.5 h before and 8 h after allergen, equal allergen dose, mean ± SEM

| SMILES | effect on allergen-induced AHR after the EAR (histamine PC100) [1] | effect on allergen-induced AHR after the LAR (histamine PC100) [1] | effect on basal airway responsiveness to inhaled histamine (PC100) [1] | AUC EAR (% change in Ppl time response curve between 0 and 5 h after allergen exposure) [2, 4] | AUC LAR (% change in Ppl time response curve between 8 and 24 h after allergen exposure) [2, 4] | initial peak response in Ppl after allergen challenge (allergen-induced acute bronchial obstruction) ([2]; ABH 25 mM nebulizer versus saline at the same allergen dose, P<0.01) | allergen-induced AHR after the LAR ([2]; equal allergen dose, saline treated 1.68±0.14-fold, P<0.005) | allergen-induced AHR after the EAR ([2]; equal allergen dose, saline treated 4.14±0.59-fold, P<0.01) | AHR100 (PC100 ratio pre/post allergen challenge) after EAR ([2]; histamine PC100 24 h before and 6 h after allergen, ABH 25 mM nebulizer 0.5 h before and 8 h after allergen, equal allergen dose) | AHR100 (PC100 ratio pre/post allergen challenge) after LAR ([2]; histamine PC100 24 h before and 24 h after allergen, ABH 25 mM nebulizer 0.5 h before and 8 h after allergen, equal allergen dose) | allergen-induced AHR after the EAR, PC100 ratio pre/post challenge ([1]; after ABH inhalation (25 mM nebulizer) at 5.5 h after ovalbumin, PC100 at 6 h, from 4.77±0.56-fold before inhalation, P<0.001) | allergen-induced AHR after the LAR, PC100 ratio pre/post challenge ([1]; after ABH inhalation (25 mM nebulizer) at 23.5 h after ovalbumin, PC100 at 24 h, from 1.95±0.23-fold before inhalation, P<0.10) | protection against the AHR after the EAR as compared to saline control ([3]; 25 mM ABH 0.5 h before allergen challenge) | allergen-induced AHR after the LAR, PC100 ratio pre/post challenge ([3]; ABH 25 mM nebulizer 0.5 h before and 8 h after allergen, challenged until obstruction, saline control 2.08±0.31-fold, P<0.005) | allergen-induced AHR after the EAR, PC100 ratio pre/post challenge ([3]; ABH 25 mM nebulizer 0.5 h before and 8 h after allergen, challenged until obstruction, saline control week 1 6.33±1.30-fold, P<0.05) | fold higher ovalbumin needed to induce airways obstruction compared to saline treatment ([3]; ABH week 2 versus saline of the same animals week 1) | occurrence of AHR after the LAR ([3]; additional inhalation of 25 mM ABH at 8 h after allergen challenge) | ovalbumin dose needed to induce airways obstruction ([3]; after pretreatment with ABH 25 mM nebulizer in week 2, saline in same animals week 1 0.04±0.01 mg, P<0.01) |
| --- | --- | --- | --- | --- | --- | --- | --- | --- | --- | --- | --- | --- | --- | --- | --- | --- | --- | --- |
| N=C(N)NCCC[C@H](N)C(=O)O [L-arginine] | reversed to a similar extent as with ABH | reversed to a similar extent as with ABH | did not affect | – | – | – | – | – | – | – | – | – | – | – | – | – | – | – |
| N=C(N)NCCC[C@@H](N)C(=O)O [D enantiomer of arginine, D-arginine] | did not affect | did not affect | did not affect | – | – | – | – | – | – | – | – | – | – | – | – | – | – | – |
| N[C@@H](CCCCB(O)O)C(=O)O [ABH, 2(S)-amino-6-boronohexanoic acid] | reversed the allergen-induced AHR after the EAR | trend towards a reduction | without effect | 983 ± 345 % × 5 min | 1697 ± 1043 % × 5 min | highly significant reduction | 1.02±0.02 fold | 1.58±0.24 fold | 1.58 ± 0.24 | 1.02 | 2.04±0.34 fold | 1.56±0.47 fold | significant protection | 1.41±0.25 fold | 3.05±0.51 fold | 32.8 fold | almost completely prevented | 1.31 ± 0.69 mg |
